How the values were obtained:
wild-type MEFs = assay: Apoptosis assay in wild-type MEFs deprived of serum; type: cell-based, mouse
Protocol: Apoptosis assays. Wild-type MEFs infected with the indicated retroviruses for 36 hours were starved for serum for 24 hours. Viability was determined by trypan blue dye exclusion, and DNA fragmentation was monitored by a terminal deoxynuclectidyl transferase (FACS-TUNEL) assay and by measurement of subdiploid DNA content of propidium iodide-stained nuclei [Zindy et al., Genes Dev. 12:2424-2433 (1998)].
On the other hand, MEFs overexpressing c-Myc, E2F-1, or E1A are exquisitely sensitive to apoptosis. […] 12:2424-2433 (1998); De Stanchina et al., Genes Dev. 12:2434-2442 (1998)].

[1] = system: 281 bp ARF promoter fragment; assay: Transactivation of ARF promoter-luciferase reporter in NIH-3T3 cells; type: cell-based, mouse; settings: NIH-3T3, 281 bp ARF promoter fragment-luciferase
Protocol: Transactivation assays. NIH-3T3 cells were transfected with 4 μg of pGL2-ARFpro BamHI or its DMP1 binding site mutant, with or without increasing amount of pFLEX-DMP1, pEVRFO-Ets1, pCMV-Ets2, pRcRSV-Elfl, pdEB-Fli1, p(IEB-EWS-Fli1 or pCMV-E2F-1 (89-437), and 4 μg β-actin SEAP control vectors [Inoue and Sherr, Mol. Cell. Biol. 18: 1590-1600 (1998); Inoue et al., J. Biol. Chem. 273:29188-29194 (1998); Davis and Roussel, Gene 171:265-269 (1996); Baily et al., Mol. Cell. Biol. 14:3230-3241 (1994)]. Transfections and normalization of luciferase levels with internal control SEAP levels were performed as described [Inoue and Sherr, Mol. Cell. Biol. 18:1590-1600 (1998)].
Similarly, DMP1 deletion mutants defective in transactivation [Inoue and Sherr, Mol. Cell. […] Mutation of the DMP1 binding site within the ARF promoter [changing CCCGGATGC, (SEQ ID NO:33) to CCCGTCGAC, (SEQ ID NO:42)] also completely abolished transactivation by wild-type DMP1 (FIG. 14C, mutant reporter). Therefore, sequences within the −189 to −181 ARF promoter segment were the only ones responsible for DMP1-mediated transactivation. Although Ets1 could bind to a 23 base pair oligonucleotide containing the DMP1 consensus site (FIG. 14B), several Ets proteins were unable to induce significant reporter gene expression from the more complex 281 base pair ARF promoter (FIG. 14C). […]

[2] = system: promoters lacking BS2 sites or containing Ets-specific M3 sites; assay: Transactivation of reporters lacking BS2 sites or containing M3 sites in 293T cells; type: cell-based, human
Excerpt: An XbaI-EcoRV fragment containing the entire DMP1 coding sequence is subcloned by blunt end ligation into a SpeI-XbaI fragment of the Rc/RSV vector (Invitrogen, La Jolla Calif.) to enable DMP1 expression in mammalian cells. 6×concatamerized BS1, 8×concatamerized, BS2, or 7×concatamerized M3 oligonucleotides (FIG. 5B) are inserted into the XhoI-SmaI sites of pGL2 (Pfornega) 5′ to a minimal simian virus 40 (SV40) early promoter driving firefly luciferase gene expression. The latter “reporter” plasmid (1 μg) together with increasing amounts of pRc/RSV-DMP1 expression plasmid compensated by decreasing quantities of control pRc/RSV DNA (total of both=2.5 μg) were transfected into 293T cells (1.5×10^6 cells per 60 mm diameter culture dish) by calcium phosphate precipitation (7). Two days later, cells were harvested, washed three times with PBS, and lysed in 1 ml of 25 mM glycylglycine (Sigma), pH 7.8, 15 mM MgSO4, 4 mM EDTA, 1 mM DTT, and 1% Triton X-100. After clearing by centrifugation, 50 μl aliquots were assayed diluted to 350 μl using 15 mM potassium phosphate buffer, pH 7.8, containing 15 mM MgSO4, 4 mM EGTA, 2 mM ATP, 1 mM DTT, and 67 uM luciferin (Sigma). Total light emission was measured for duplicate samples during the initial 20 seconds after luciferin injection with an Optocomp I luminometer (MGM Instruments, Hamden Conn.). […]

For “DMP1: murine cyclin D-associated myb-like transcription factor, 761 amino acids, SEQ ID NO:1”, which “apoptosis / cell death” value (wild-type MEFs) is on record?
The value was “did not trigger apoptosis”.

What about the “ARF promoter reporter gene expression” value [1] of the same substance?
The value was “enhanced reporter gene expression”.

What about the transactivation [2] of the same substance?
The transactivation was “not observed”.

Source: patent US6673902B2, “Cyclin D binding factor, and uses thereof” (St. Jude Children's Research Hospital, priority 1996, dated 2004)
